# In patent US9283280B2, “Compositions for drug administration” (Aegis Therapeutics, LLC, priority 2008, dated 2016):
# Experiments:
# [1] = cited from earlier work
# [2] = whole-swallowed tablet, cited from earlier work
# [3] = tested on: blood D-glucose; assay: Insulin eye drops with absorption enhancer in xylazine/ketamine-anesthetized hyperglycemic rats, blood D-glucose; format: in vivo, rat; settings: for hypoglycemic effect / insulin absorption enhancement: eye drops 0.2% insulin + 0.5% enhancer; for Blood Glucose Concentrations: insulin eye drops + 0.50% dodecyl maltoside
# [4] = tested on: Staphylococcus aureus (ATCC No. 6538); assay: Antimicrobial activity of alkylglycoside solutions, plate count log reduction; format: cell-based; settings: […]
# Excerpt: (§1) 20110-2209. The viable microorganisms used in the invention were not more than five passages removed from the original ATCC culture. As described herein, one passage is defined as the transfer of organisms from an established culture to fresh medium and all transfers are counted.
# (§2) Cultures received from the ATCC are resuscitated according to the directions provided by the ATTC. Cells grown in broth were pelleted by centrifugation, resuspended in 1/20th the volume of fresh maintenance broth, and combined with an equal volume of 20% (v/v in water) sterile glycerol. Cells grown on agar were scraped from the surface into the maintenance broth also containing 10% glycerol broth. Small aliquots of the suspension were dispensed into sterile vials and the vials were stored in liquid nitrogen or in a mechanical freezer at a temperature no higher than about −50° C. When a fresh seed-stock vial was required, it was removed and used to inoculate a series of working stock cultures. These working stock cultures were then used periodically (each day in the case of bacteria and yeast) to start the inoculum culture.
# (§3) The culture conditions for the inoculum culture is substantially as described in Table IV. For example, suitable media can include but is not limited to, Soybean-Casein Digest or Sabouraud Dextrose Agar Medium. […]
# (§4) The suspension should be refrigerated if it is not used within 2 hours. To confirm the initial cfu per mL estimate, the number of cfu per mL in each suspension was determined using the conditions of media and microbial recovery incubation times listed in Table IV (e.g., from about 3 to about 7 days). This value serves to calibrate the size of inoculum used in the test. The bacterial and yeast suspensions were used within 24 hours of harvest; whereas the fungal preparation can be stored under refrigeration for up to 7 days.
# (§5) To determine which alkylglycoside formulations have antibacterial activity, the formulations were prepared in phosphate buffered saline (PBS) at pH 7. As a source of nutrition, either 1.5 mg/mL bovine serum albumin (BSA; see Tables V and VI) or 1 mg/mL of PYY was added (see Table VII) to the medium. BSA (CAS Number: 9048-46-8) was obtained from Sigma-Aldrich, St. Louis, Mo., USA, n-dodecyl-4-O-α-D-glucopyranosyl-β-D-glucopyranoside and n-tetradecyl-4-O-α-D-glucopyranosyl-β-D-glucopyranoside were obtained from Anatrace Inc., Maumee, Ohio, USA, and PYY was obtained from Bachem California Inc., Torrance, Calif., USA.
# (§6) Antibacterial activity of the alkylglycosides were conducted in four sterile, capped bacteriological containers of suitable size into which a sufficient volume of alkylglycoside solution had been transferred. Each container was inoculated with one of the prepared and standardized inoculums and mixed. The volume of the suspension inoculum was between about 0.5% and about 1.0% of the volume of the alkylglycoside solution. […]. To determine the level of inhibition of growth, or reduction of growth based on a logarithmic scale, the initial concentration of viable microorganisms in each test preparation was estimated based on the concentration of microorganisms in each of the standardized inoculum as determined by the plate-count method. The inoculated containers were then incubated at about 22.5° C.±2.5. The growth or non-growth of the microorganisms in each culture/container were again determined at day 14 and day 28. The number of cfu present in each calculation was determined by the plate-count procedure standard in the art for the applicable intervals. The change in the orders of magnitude of bacterium and/or fungi was then determined by subtracting the first calculated log 10 values of the concentrations of cfu per mL present at the start or beginning (e.g., day 0), from the log 10 values of the concentration of cfu per mL for each microorganism at the applicable test intervals (e.g., day 14 and day 28; see Tables V, VI and VII).
# [5] = tested on: Escherichia coli (ATCC No. 8739); assay: as above; format: cell-based; settings: […]
# Excerpt: as §1, §2, §3, §4, §5, §6
# [6] = tested on: Candida albicans (ATCC No. 10231); assay: as above; format: cell-based; settings: […]
# Excerpt: as §1, §2, §3, §4, §5, §6
# [7] = tested on: Aspergillus niger (ATCC No. 16404); assay: as above; format: cell-based; settings: […]
# Excerpt: as §1, §2, §3, §4, §5, §6
# [8] = Intranasal triptans with alkylsaccharide in rats, plasma levels by HPLC; format: in vivo;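 further: rats in groups of eight given 20 µL into one nostril, dose expressed as triptan free base, Cmax and Tmax read from plasma concentration–time curves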
# Description: Each set of drug solutions is administered to six groups of eight rats each by 20 uL instillation to a single nare of each animal. […] After the last blood sample is collected each animal is cuthanizcd with CO2. After blood collection, plasma is immediately prepared from each blood sample using lithium/heparin as the anticoagulant. Plasma samples are stored at −70° C. until analyzed. […] The observed Tmax values from each plot is determined by inspection of the concentration vs time plots and recorded as shown in Table XII. The doses designated in this table reflect amounts of triptan free base in each case.
# [9] = tested on: blood glucose; assay: Intranasal insulin in […] TDM, anesthesia-induced hyperglycemia model; format: in vivo, mouse; settings: intranasal insulin alone, minus […] TDM
# Excerpt: Intranasal administration of drugs or agents are possible in animal models e.g. mice and rats, although the nasal opening in is very small. In the experiments and results described herein, an anesthesia-induced hyperglycemia model was used (described in Examples above). Hyperglycemic animals were induced by an intraperitoneal (IP) injection containing xylazine-ketamine and blood glucose levels were monitored over a period of time. Immediately after the xylazine-ketamine injection, there was an increase in the blood glucose levels as shown in FIG. 2 (closed dark circles), and blood glucose levels were about 450 mg/dl. […] Blood glucose levels peak to about 482 mg/dl by 30 minutes after the xylazine-ketamine injection (FIG. 2). […] At about the 75 minute time point, blood glucose levels gradually returned to the baseline level in a normoglycemic mouse, or about 80-100 mg/dl.
# [10] = tested on: food intake; settings: injection; less than usual, on average; cited from earlier work
# [11] = tested on: human nasal epithelium; settings: in vivo
# [12] = tested on: mucociliary surfaces; settings: concentrations far below those used in intranasal formulations; cited from earlier work
# [13] = Naratriptan 0.22 mg/kg intranasal, alkylsaccharide 0.02%
# [14] = Naratriptan 0.22 mg/kg intranasal, alkylsaccharide 0.05%
# [15] = Naratriptan 0.22 mg/kg intranasal, alkylsaccharide 0.1%
# [16] = Naratriptan 0.22 mg/kg intranasal, alkylsaccharide 0.5%
# [17] = Naratriptan 0.22 mg/kg intranasal, alkylsaccharide 2%
# [18] = Sumatriptan 6.2 mg/kg intranasal, alkylsaccharide 0.02%
# [19] = Sumatriptan 6.2 mg/kg intranasal, alkylsaccharide 0.05%
# [20] = Sumatriptan 6.2 mg/kg intranasal, alkylsaccharide 0.1%
# [21] = Sumatriptan 6.2 mg/kg intranasal, alkylsaccharide 0.5%
# [22] = Sumatriptan 6.2 mg/kg intranasal, alkylsaccharide 2%
compound,measurement,setting,value
"COc1ccc2[nH]cc(CCNC(C)=O)c2c1 [melatonin, 5-methoxy-N-acetyltryptamine]",bioavailability (estimated),[1]; oral administration,30-50%
same,absolute bioavailability,"[1]; oral tablets, normal healthy volunteers, DeMuro et al. (2000)",approximately 15%
"Cc1cc2c(s1)Nc1ccccc1N=C2N1CCN(C)CC1 [olanzapine, Olanzapine]",time to peak concentrations,[2]; oral dose,approximately 6 hours
same,dose metabolized by first pass before reaching systemic circulation,[2],approximately 40%
"CCCCCCCCCCCCO[C@@H]1O[C@H](CO)[C@@H](O[C@H]2O[C@H](CO)[C@@H](O)[C@H](O)[C@H]2O)[C@H](O)[C@H]1O [dodecyl maltoside, n-dodecyl-4-O-α-D-glucopyranosyl-β-D-glucopyranoside]",hypoglycemic effect / insulin absorption enhancement,[3],equally effective
same,hypoglycemic effect / insulin absorption enhancement,[3]; listed as dodecyl-β3-D-maltoside,prompt and sustained fall in blood glucose levels
same,Blood Glucose Concentrations,[3]; time 0 min,379 ± 4 mg/dL
same,Blood Glucose Concentrations,[3]; time 30 min,297 ± 18 mg/dL
same,Blood Glucose Concentrations,[3]; time 60 min,188 ± 25 mg/dL
same,Blood Glucose Concentrations,[3]; time 90 min,141 ± 13 mg/dL
same,Blood Glucose Concentrations,[3]; time 120 min,123 ± 5 mg/dL
same,Blood Glucose Concentrations,[3]; time −10 min,366 ± 12 mg/dL
same,Blood Glucose Concentrations,[3]; time −20 min,375 ± 9 mg/dL
same,"Log Reduction of Microorganisms, Day 14",[4]; BSA,≧5.2 orders of orders of magnitude reduction
same,"Log Reduction of Microorganisms, Day 28",[4]; BSA,≧5.2 orders of orders of magnitude reduction
same,"Log Reduction, Day 14",[4]; PYY,≧4.9 orders of orders of magnitude reduction
same,"Log Reduction, Day 28",[4]; PYY,≧4.9 orders of orders of magnitude reduction
same,"Log Reduction of Microorganisms, Day 28",[5]; BSA,0.1 orders of orders of magnitude reduction
same,"Log Reduction, Day 14",[5]; PYY,≧5 orders of orders of magnitude reduction
same,"Log Reduction, Day 28",[5]; PYY,≧5 orders of orders of magnitude reduction
same,"Log Reduction of Microorganisms, Day 14",[6]; BSA,3.0 orders of orders of magnitude reduction
same,"Log Reduction of Microorganisms, Day 28",[6]; BSA,≧5.3 orders of orders of magnitude reduction
same,"Log Reduction, Day 14",[6]; PYY,≧4.5 orders of orders of magnitude reduction
same,"Log Reduction, Day 28",[6]; PYY,≧4.5 orders of orders of magnitude reduction
same,"Log Reduction of Microorganisms, Day 14",[7]; BSA,0.7 orders of orders of magnitude reduction
same,"Log Reduction, Day 14",[7]; PYY,4.7 orders of orders of magnitude reduction
same,"Log Reduction, Day 28",[7]; PYY,4.7 orders of orders of magnitude reduction
same,Ratio Cmax(alkylsacch)/Cmax(No alkylsacch),[8]; [13],≦1.5
same,Tmax,[8]; [13],~60 to 120 min
same,Ratio Cmax(alkylsacch)/Cmax(No alkylsacch),[8]; [14],≧1.5
same,Tmax,[8]; [14],~5 to 15 min
same,Ratio Cmax(alkylsacch)/Cmax(No alkylsacch),[8]; [15],≧1.5
same,Tmax,[8]; [15],~5 to 15 min
same,Ratio Cmax(alkylsacch)/Cmax(No alkylsacch),[8]; [16],≧1.5
same,Tmax,[8]; [16],~5 to 15 min
same,Ratio Cmax(alkylsacch)/Cmax(No alkylsacch),[8]; [17],≧1.5
same,Tmax,[8]; [17],~5 to 15 min
same,Tmax,"[8]; Rizatriptan […] intranasal, alkylsaccharide 0.02%",~60 to 120 min
same,Tmax,"[8]; Rizatriptan […] intranasal, alkylsaccharide 0.05%",~5 to 15 min
same,Tmax,"[8]; Rizatriptan […] intranasal, alkylsaccharide 0.1%",~5 to 15 min
same,Tmax,"[8]; Rizatriptan […] intranasal, alkylsaccharide 0.5%",~5 to 15 min
same,Tmax,"[8]; Rizatriptan […] intranasal, alkylsaccharide 2%",~5 to 15 min
same,Ratio Cmax(alkylsacch)/Cmax(No alkylsacch),[8]; [18],≦1.5
same,Tmax,[8]; [18],~60 to 120 min
same,Ratio Cmax(alkylsacch)/Cmax(No alkylsacch),[8]; [19],≧1.5
same,Tmax,[8]; [19],~5 to 15 min
same,Ratio Cmax(alkylsacch)/Cmax(No alkylsacch),[8]; [20],≧1.5
same,Tmax,[8]; [20],~5 to 15 min
same,Ratio Cmax(alkylsacch)/Cmax(No alkylsacch),[8]; [21],≧1.5
same,Tmax,[8]; [21],~5 to 15 min
same,Ratio Cmax(alkylsacch)/Cmax(No alkylsacch),[8]; [22],≧1.5
same,Tmax,[8]; [22],~5 to 15 min
insulin alone: insulin (Humalog) given intranasally without TDM,return to normoglycemic levels,[9],never return to normoglycemic levels
same,time mark at which blood glucose starts to decline,[9],~120 min
PYY: gut hormone fragment peptide PYY3-36,reduction of food eaten,[10],30%
CCCCCCCCCCCC(=O)OC[C@H]1O[C@H](O[C@]2(CO)O[C@H](CO)[C@@H](O)[C@@H]2O)[C@H](O)[C@@H](O)[C@@H]1O [sucrose dodecanoate],irritation of the nasal mucosa,[11],no observable irritation
benzalkonium chloride,toxicity to mucociliary surfaces,[12],significant disruption of the mucociliary surfaces
